Assay results from patent US11898187B2 (priority 2017, dated 2024).

What was measured:
[1] = molecular target: N-glycosyltransferase from Actinobacillus pleuropneumoniae (Actinobacillus pleuropneumoniae serotype 5b, UniProt A3N2T3); test: GlycoSCORES: peptide glycosylation by NGT, read by SAMDI-MS; assay type: biochemical; conditions: for MO[…]: 4-mer peptides, fraction modified (0-1); for modification by NGT in GlycoSCORES peptide screens: CFPS NGT; for modification by NGT in GlycoSCORES peptide screens / glycosylation / modification efficiency / glucose modification of truncated GSDQNATF peptides: 50 μM peptide, 2.5 mM UDP-Glc; for modification by NGT in GlycoSCORES peptide screens / glucose modification of truncated GSDQNATF peptides: 30° C.; for glycosylation / modification efficiency: 6-mer sequences in GlycoSCORES peptide screens, 0.025 μM NGT for 1 h; for glucose modification of truncated GSDQNATF peptides: 0.5 μM purified NGT, 3 h
NGT [2] = molecular target: T1, NGT (Actinobacillus pleuropneumoniae serotype 5b, UniProt A3N2T3); assay type: biochemical; conditions: 50 μM peptide, 1 mM sugar donor, purified NGT, 30° C.
NGT [3] = molecular target: T1, NGT; assay type: biochemical; conditions: 5 μM Im7 variant, 0.1 μM NGT, 2.5 mM UDP-Glc, 2.5 h, 30° C.
NGT [4] = molecular target: T1, NGT; assay type: cell-based

N-glycosyltransferase from Actinobacillus pleuropneumoniae, sequence (A3N2T3 whole entry, the tested form may be a part): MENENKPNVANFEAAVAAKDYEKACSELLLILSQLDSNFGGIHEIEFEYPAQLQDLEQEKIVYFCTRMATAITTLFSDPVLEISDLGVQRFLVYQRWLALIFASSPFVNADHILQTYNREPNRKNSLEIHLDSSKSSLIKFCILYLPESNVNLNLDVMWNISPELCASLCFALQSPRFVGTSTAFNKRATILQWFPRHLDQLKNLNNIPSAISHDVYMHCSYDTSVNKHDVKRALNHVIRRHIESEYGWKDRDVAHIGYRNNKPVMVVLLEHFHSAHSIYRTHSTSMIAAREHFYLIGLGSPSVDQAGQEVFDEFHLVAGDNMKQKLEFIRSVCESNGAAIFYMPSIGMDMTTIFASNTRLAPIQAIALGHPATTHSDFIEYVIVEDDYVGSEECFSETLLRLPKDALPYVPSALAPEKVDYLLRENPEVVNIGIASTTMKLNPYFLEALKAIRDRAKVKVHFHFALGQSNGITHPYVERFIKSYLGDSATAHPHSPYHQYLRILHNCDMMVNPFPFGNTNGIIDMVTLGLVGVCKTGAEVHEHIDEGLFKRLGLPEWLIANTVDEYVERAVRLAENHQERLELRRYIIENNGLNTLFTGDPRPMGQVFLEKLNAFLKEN
T1 sequence (A3N2T3 whole entry): as the sequence (A3N2T3 whole entry, the tested form may be a part) above

| Compound | MO[…] [1] | also measured |
| --- | --- | --- |
| WNAT | 0.8599 | – |
| SNIT | 0.7453 | – |
| GNVS | 0.6117 | – |
| PNIS | 0.8821 | – |
| ANST | 0.7846 | – |
| HNIT | 0.8411 | – |
| TNHT | 0.8444 | – |
| MNTT | 0.5502 | – |
| GNWT | 0.9409 | – |
| O=c1ccn([C@@H]2O[C@H](COP(=O)(O)OP(=O)(O)O[C@H]3OC[C@@H](O)[C@H](O)[C@H]3O)[C@@H](O)[C@H]2O)c(=O)[nH]1 [UDP-Xyl, UDP-xylose] | – | efficiency of sugar transfer by NGT (NGT [2]): much lower efficiencies |
| VNIT | 0.6873 | – |
| ANAT | 0.9101 | – |
| SNAT | 0.8383 | – |
| NNRT | 0.7671 | – |
| TNVT | 0.9096 | – |
| SNHS | 0.5937 | – |
| MNHS | 0.6816 | – |
| MNRT | 0.6724 | – |
| ENRT | 0.7271 | – |
| MNMT | 0.5547 | – |
| PNRT | 0.8662 | – |
| WNRT | 0.6933 | – |
| ENST | 0.6042 | – |
| SNRT | 0.6821 | – |
| PNIT | 0.9358 | – |

| Compound | MO[…] [1] | also measured |
| --- | --- | --- |
| PNAT | 0.8919 | – |
| NHNETD | – | modification by NGT in GlycoSCORES peptide screens [1]: no detectable modification |
| VNAT | 0.6982 | – |
| WNHT | 0.8335 | – |
| PNYS | 0.6762 | – |
| ANYS | 0.6975 | – |
| NNHS | 0.6848 | – |
| ANMS | 0.5336 | – |
| PNTT | 0.8532 | – |
| ANVT | 0.9844 | – |
| PNYT | 0.8963 | – |
| LNVT | 0.6724 | – |
| PNVS | 0.9374 | – |
| ANFT | 0.8633 | – |
| PNST | 0.8271 | – |
| PNMS | 0.636 | – |
| MNVS | 0.9118 | – |
| TNST | 0.6424 | – |
| ENHT | 0.7656 | – |
| SNHT | 0.906 | – |
| MNIS | 0.5286 | – |
| ANYT | 0.91 | – |
| QNVT | 0.5056 | – |
| SNTT | 0.5496 | – |
| PNLT | 0.8254 | – |

| Compound | MO[…] [1] | also measured |
| --- | --- | --- |
| PNFT | 0.8402 | – |
| PNHS | 0.6988 | – |
| HNIS | 0.704 | – |
| ANTT | 0.7872 | – |
| TNHS | 0.5091 | – |
| TNAT | 0.7761 | – |
| ANVS | 0.9611 | – |
| ANHS | 0.6918 | – |
| HNHS | 0.6747 | – |
| DNVT | 0.5073 | – |
| GNWTRC | – | modification by NGT in GlycoSCORES peptide screens [1]: among the most efficiently glycosylated sequences |
| TNVS | 0.8695 | – |
| HNVS | 0.9185 | – |
| WNIT | 0.9275 | – |
| LNIT | 0.5288 | – |
| INVT | 0.6893 | – |
| GNVT | 0.8843 | – |
| YANATT | – | modification by NGT in GlycoSCORES peptide screens [1]: efficiently modified |
| SNVS | 0.971 | – |
| SNYT | 0.6177 | – |
| HNRT | 0.6962 | – |
| FANATT | – | glycosylation / modification efficiency [1]: ~75% |
| MNVT | 0.8374 | – |
| GNYT | 0.5195 | – |
| WNIS | 0.746 | – |

| Compound | MO[…] [1] | also measured |
| --- | --- | --- |
| ANIS | 0.8694 | – |
| NNVS | 0.7147 | – |
| GNHT | 0.7856 | – |
| HNAT | 0.7427 | – |
| MNIT | 0.7393 | – |
| MNHT | 0.855 | – |
| NNAT | 0.7664 | – |
| MNAT | 0.7903 | – |
| ANLT | 0.6957 | – |
| ENVS | 0.6584 | – |
| QNATFC | – | glucose modification of truncated GSDQNATF peptides [1]: most efficient glucose modification |
| PNVT | 0.9741 | – |
| GNWS | 0.72 | – |
| VNVT | 0.8081 | – |
| PNMT | 0.8399 | – |
| DNHT | 0.7287 | – |
| ENVT | 0.8903 | – |
| NNHT | 0.8624 | – |
| CNAT | – | glucose modification of truncated GSDQNATF peptides [1]: could be modified by NGT |
| YANATS | – | glycosylation / modification efficiency [1]: ~36% |
| ANRT | 0.8206 | – |
| SNVT | 0.9488 | – |
| GGNWTT | – | modification by NGT in GlycoSCORES peptide screens [1]: more efficiently glycosylated than any previously studied; glycosylation of Im7 variant (NGT [3]): most efficient modification within the Im7 protein; glycosylation of Fc variant in E. coli cytoplasm (NGT [4]; BL21(DE3) E. coli, Fc induced 2 h, then NGT 30 min): most efficient glycosylation; modification of HMW1ct variant in E. coli cytoplasm (NGT [4]; GlycTag at Asn1366, HMW1ct induced 1 h, then NGT 2 h): highest modification |
| SNST | 0.5156 | – |
